Reference: ChEMBL document CHEMBL6177983, “PSMA-Guided PROTAC Degraders for Tumor-Specific Protein Degradation in Prostate Cancer” (J Med Chem, 2025)
Activity calls are given as the source filed them. No cut-off for these calls is given here.

How the values were obtained:
[1] = molecular target: T1, von Hippel-Lindau disease tumor suppressor/Bromodomain-containing protein 4 (Homo sapiens) (UniProt O60885+P40337); experiment: PROTAC activity at BRD4/VHL in human LNCaP cells assessed as induction of BRD4 degradation at 10 nM incubated for 8 hrs in presence of MLN4924 by Western blotting analysis; assay type: cell-based
[2] = Toxicity in male BALB/c mouse assessed as effect on liver weight at 0.47 mmol/L, iv administered every day for 21 days; assay type: organism-based; settings: in vivo, 504 h, time 21 day
[3] = molecular target: T1, von Hippel-Lindau disease tumor suppressor/Bromodomain-containing protein 4 (Homo sapiens); experiment: PROTAC activity at BRD4/VHL in human 22Rv1 cells expressing PSMA assessed as induction of BRD4 degradation incubated for 24 hrs by Western blotting analysis; assay type: cell-based; settings: dose <= 100.0 nM
[4] = Toxicity in male BALB/c mouse assessed as effect on spleen weight at 0.47 mmol/L, iv administered every day for 21 days; assay type: organism-based; settings: in vivo, 504 h, time 21 day
[5] = Toxicity in male BALB/c mouse assessed as effect on kidney weight at 0.47 mmol/L, iv administered every day for 21 days; assay type: organism-based; settings: in vivo, 504 h, time 21 day
[6] = Toxicity in male BALB/c mouse assessed as body weight loss at 0.47 mmol/L, iv administered every day for 21 days; assay type: organism-based; settings: in vivo, 504 h, time 21 day
[7] = molecular target: T1, von Hippel-Lindau disease tumor suppressor/Bromodomain-containing protein 4 (Homo sapiens); experiment: PROTAC activity at BRD4/VHL PSMA knockdown in human LNCaP cells assessed as induction of BRD4 degradation at 3 nM incubated for 12 hrs by Western blotting analysis; assay type: cell-based
[8] = molecular target: T1, von Hippel-Lindau disease tumor suppressor/Bromodomain-containing protein 4 (Homo sapiens); experiment: PROTAC activity at BRD4/VHL in human DU-145 cells assessed as induction of BRD4 degradation up to 100 nM incubated for 24 hrs by Western blotting analysis; assay type: cell-based
[9] = molecular target: T1, von Hippel-Lindau disease tumor suppressor/Bromodomain-containing protein 4 (Homo sapiens); experiment: PROTAC activity at BRD4/VHL in human LNCaP cells assessed as induction of BRD4 degradation at 10 nM incubated for 8 hrs in presence of VH032 by Western blotting analysis; assay type: cell-based
[10] = Half life in BALB/c mouse at 0.14 mmol/L, iv; assay type: ADME; settings: in vivo
HEK-293T = experiment: Cytotoxicity against HEK293T cells assessed as cell viability incubated for 72 hrs by CCK-8 assay; assay type: toxicity, cell-based; settings: human
[11] = Toxicity in male BALB/c mouse assessed as effect on lung weight at 0.47 mmol/L, iv administered every day for 21 days; assay type: organism-based; settings: in vivo, 504 h, time 21 day
[12] = molecular target: T1, von Hippel-Lindau disease tumor suppressor/Bromodomain-containing protein 4 (Homo sapiens); experiment: PROTAC activity at BRD4/VHL in human LNCaP cells assessed as induction of BRD4 degradation at 3 nM incubated for 24 hrs in presence of filipin by Western blotting analysis; assay type: cell-based
J82 = experiment: Cytotoxicity against human J82 cells assessed as cell viability incubated for 72 hrs by CCK-8 assay; assay type: functional, cell-based
LNCaP = experiment: Antitumor activity against human LNCaP cells xenografted in BALB/c mouse assessed as tumor growth inhibition at 0.47 mmol/L, iv administered every day for 21 days; assay type: functional; settings: 504 h, time 21 day, read-out: TGI
[13] = Toxicity in male BALB/c mouse assessed as effect on heart weight at 0.47 mmol/L, iv administered every day for 21 days; assay type: organism-based; settings: in vivo, 504 h, time 21 day
DU-145 = experiment: Cytotoxicity against human DU-145 cells assessed as cell viability incubated for 72 hrs by CCK-8 assay; assay type: functional, cell-based
[14] = molecular target: T1, von Hippel-Lindau disease tumor suppressor/Bromodomain-containing protein 4 (Homo sapiens); experiment: PROTAC activity at BRD4/VHL in human VCaP cells expressing PSMA assessed as induction of BRD4 degradation incubated for 24 hrs by Western blotting analysis; assay type: cell-based; settings: dose <= 100.0 nM
[15] = molecular target: T1, von Hippel-Lindau disease tumor suppressor/Bromodomain-containing protein 4 (Homo sapiens); experiment: PROTAC activity at BRD4/VHL in HEK293 cells assessed as induction of BRD4 degradation up to 100 nM incubated for 24 hrs by Western blotting analysis; assay type: cell-based
[16] = molecular target: T1, von Hippel-Lindau disease tumor suppressor/Bromodomain-containing protein 4 (Homo sapiens); experiment: PROTAC activity at BRD4/VHL in human J82 cells assessed as induction of BRD4 degradation up to 100 nM incubated for 24 hrs by Western blotting analysis; assay type: cell-based
[17] = Toxicity in male BALB/c mouse assessed as effect on tumor weight at 0.47 mmol/L, iv administered every day for 21 days; assay type: organism-based; settings: in vivo, 504 h, time 21 day
[18] = molecular target: T1, von Hippel-Lindau disease tumor suppressor/Bromodomain-containing protein 4 (Homo sapiens); experiment: PROTAC activity at BRD4/VHL in human LNCaP cells assessed as induction of BRD4 degradation at 10 nM incubated for 8 hrs in presence of MG132 by Western blotting analysis; assay type: cell-based
[19] = Drug concentration in male BALB/c mouse plasma at 0.14 mmol/L, iv; assay type: ADME, cell-free
[20] = Drug concentration in male BALB/c mouse Tumor at 0.14 mmol/L, iv; assay type: ADME, tissue-based, Neoplasm; settings: in vivo
[21] = molecular target: T1, von Hippel-Lindau disease tumor suppressor/Bromodomain-containing protein 4 (Homo sapiens); experiment: PROTAC activity at BRD4/VHL in human LNCaP cells expressing PSMA assessed as induction of BRD4 degradation incubated for 24 hrs by Western blotting analysis; assay type: cell-based; settings: dose <= 100.0 nM

T1 sequence (P40337 whole entry, looked up, other chains not shown): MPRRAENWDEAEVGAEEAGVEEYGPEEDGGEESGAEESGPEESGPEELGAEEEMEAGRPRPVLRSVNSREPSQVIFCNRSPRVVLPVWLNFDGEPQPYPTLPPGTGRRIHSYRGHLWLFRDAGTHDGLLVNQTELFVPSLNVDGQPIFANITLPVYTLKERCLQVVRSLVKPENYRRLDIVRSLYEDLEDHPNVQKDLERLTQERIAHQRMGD

Activity [1]: Active
Activity [3]: Dose-dependent-effect
Activity [7]: Active
Activity [8]: inactive
Activity [9]: Active
half-life [10]: 4.19 h
Activity [12]: Active
Activity [14]: Dose-dependent-effect
Activity [15]: inactive
Activity [16]: inactive
Activity [18]: Active
Cp [19]: Active
Drug uptake [20]: Active
Activity [21]: Dose-dependent-effect
Compound: Cc1ncsc1-c1ccc([C@H](C)NC(=O)[C@@H]2C[C@@H](OC(=O)CCCc3cn(CCCNC(=O)[C@H](Cc4ccc(O)cc4)NC(=O)[C@H](Cc4ccccc4)NC(=O)CCC(=O)NCCCCCC(=O)N(CCCC[C@H](NC(=O)N[C@@H](CCC(=O)O)C(=O)O)C(=O)O)Cc4cccc(Cl)c4)nn3)CN2C(=O)[C@@H](NC(=O)COCCCOCCNC(=O)C[C@@H]2N=C(c3ccc(Cl)cc3)c3c(sc(C)c3C)-n3c(C)nnc32)C(C)(C)C)cc1
Activity [2]: Non-toxic
Activity [4]: Non-toxic
Activity [5]: Non-toxic
Activity [6]: Non-toxic
Activity (HEK-293T): Non-toxic
Activity [11]: Non-toxic
Activity (J82): inactive
inhibition in vivo at 470 µM (LNCaP): 88.6%
Activity [13]: Non-toxic
Activity (DU-145): inactive
Activity [17]: Non-toxic
